Data on seven molecules can be found in paper PMC5118688 (Scientific Reports, 2016).

A word on the IC50: it is the concentration needed to halve the response being measured.

Values after ≈ are worked out from the molar mass of the structure shown. Read-outs that look alike come from different tables or passages of the source.

In assay [1] the test system is mAb3C9. Nature of the assay: mimotope-based dcELISA (mAb3C9 and M20-GST-BAD/SA-HRP competitor). The format is binding, mouse. As to conditions: for CR (%): M20-GST-BAD, (IC50 of parathion-methyl/IC50 of pesticide) × 100; for LOD (IC10): mAb3C9, M20-GST-BAD; for IC50 ± SD: mAb3C9, competitor M20-GST-BAD. Here is the method:
To develop a mimotope-based dcELISA, the biotinylated mimotope fusion protein was firstly assembled with streptavidin-HRP conjugate (SA-HRP) utilized the high affinity of biotin and streptavidin. The assembly process was just mixing a certain amount of biotinylated mimotope fusion protein with SA-HRP and incubating them at 4 °C overnight before use as an HRP-labeled competitor.
An innovative mimotope-based dcELISA was developed and performed as below. […] TMB solution (100 μL/well) was added and incubated for 15 min at 37 °C.
The optimal condition for mimotope-based dcELISA was optimized as chemosynthesized antigen-based dcELISA. The selectivity and sensitivity of the developed mimotope-based dcELISA for the 24 OPs were also determined under the optimum condition.

Assay [2] has as its system mAb3C9. Nature of the assay: optimized chemosynthesized antigen-based dcELISA (mAb3C9 and hapten 6-OVA). As to conditions: for CR (%): Hapten 6-OVA, (IC50 of parathion-methyl/IC50 of pesticide) × 100; for LOD (IC10): mAb3C9, Hapten 6-OVA; for IC50 ± SD: mAb3C9, coating antigen Hapten 6-OVA.
Experimental: (§1) The dcELISA procedure was performed as below. First, the plate (Costar, Corning Inc., New York, USA) was coated with coating antigen (100 μL/well in 1 × PBS) for 1 h at 37 °C. Then, the wells were washed four times with PBST (1 × PBS with 0.05% (v/v) Tween-20) and blocked with 2% skim milk (200 μL/well) for 1 h at 37 °C. After washing four times, 50 μL analyte in MeOH-water solution and 50 μL mAb-HRP in PBS were added. The plate was incubated for 1 h at 37 °C and then washed four times before adding TMB solution (100 μL/well). After incubation for 15 min at 37 °C, 50 μL/well of H2SO4 (2 mol/L) was added to stop the reaction, and the absorbance was recorded at 450 nm using the Model 680 plate reader (Bio-Rad, USA).
(§2) 18 kinds of O,O-dimethyl OPs and 6 kinds of O,O-diethyl OPs were purchased from National Standards of China and used for the selectivity and sensitivity study using the optimized dcELISA procedure. […] The IC50 value and detection limit of each OP were calculated. The CR value, which was used to evaluate the selectivity of the method, was calculated using the following equation:
For assay [3] the following is noted: ref Hua et al. 11; cited from earlier work.
In a further assay the test system is mAb4D11. Nature of the assay: optimized mAb4D11-based dcELISA. As to conditions: mAb4D11-based dcELISA.
Assay [4] concerns mAb against a generic hapten (3-(4-dimethoxyphosphorothioyloxy phenyl)propanoic acid). As to conditions: ref Liu et al. 10; cited from earlier work.
The conditions of assay [5]: ref Liang et al. 9; cited from earlier work.

Experimental for mAb4D11: as §1, §2

For `COP(=S)(OC)Oc1nc(Cl)c(Cl)cc1Cl` [Chlorpyrifos-methyl], the “CR (%)” value in the assay on mAb3C9 [1] is 122.8%; in the assay with mAb3C9 [2], 120.7%; in the assay on mAb4D11, 59.4%. Also, the “LOD (IC10)” value in the assay on mAb3C9 [1] turned out to be 0.0009 µg/mL; in the assay on mAb3C9 [2] it was 0.0007 µg/mL. Further, the “IC50 ± SD” value in the assay with mAb3C9 [1] was 0.0041 ± 0.0002 µg/mL (≈ 0.0127 µM); with mAb3C9 [2], 0.0039 ± 0.0001 µg/mL (≈ 0.0121 µM). Besides, the figures for the IC50 (in assay [3]; in the assay on mAb4D11; in assay [4]) were > 100 µg/mL, 0.0244 µg/mL (≈ 0.0757 µM) and 0.81 µg/mL (≈ 2.51 µM), respectively. The molecule further yielded an LOD in the assay with mAb4D11 of 5.7 ng/mL.
On to `COP(=S)(OC)Oc1ccc([N+](=O)[O-])c(C)c1` [Fenitrothion], for which the “CR (%)” value is recorded as 104.1% in the assay on mAb3C9 [1], 107.1% in the assay with mAb3C9 [2] and 180.2% in the assay with mAb4D11. Moreover, the “LOD (IC10)” value was determined as 0.0012 µg/mL in the assay with mAb3C9 [1] and 0.0011 µg/mL with mAb3C9 [2]. In addition, the “IC50 ± SD” value came out at 0.0049 ± 0.0002 µg/mL (≈ 0.0177 µM) with mAb3C9 [1] and 0.0044 ± 0.0003 µg/mL (≈ 0.0159 µM) in the assay with mAb3C9 [2]. The IC50 in assay [5] is 0.324 µg/mL (≈ 1.17 µM); in assay [3] it was 0.0089 µg/mL (≈ 0.0321 µM); in the assay with mAb4D11, 0.0081 µg/mL (≈ 0.0292 µM); in assay [4], 3.54 µg/mL (≈ 12.8 µM). Also, in the assay with mAb4D11, the LOD is on record as 1.2 ng/mL.
For the molecule `COP(=S)(OC)Oc1ccc(SC)c(C)c1` [Fenthion], the “CR (%)” value in the assay with mAb3C9 [1] was 21.6%; with mAb3C9 [2], 32.1%; with mAb4D11, 303.6%. The “LOD (IC10)” value in the assay with mAb3C9 [1] was 0.0044 µg/mL; in the assay with mAb3C9 [2] it was 0.003 µg/mL. Also, the “IC50 ± SD” value turned out to be 0.0234 ± 0.0017 µg/mL (≈ 0.0841 µM) with mAb3C9 [1] and 0.0145 ± 0.0011 µg/mL (≈ 0.0521 µM) with mAb3C9 [2]. Moreover, the IC50 is 0.7889 µg/mL (≈ 2.83 µM) in assay [5], > 100 µg/mL in assay [3], 0.0048 µg/mL (≈ 0.0172 µM) in the assay with mAb4D11 and 1.21 µg/mL (≈ 4.35 µM) in assay [4]. In the assay with mAb4D11, this molecule returned an LOD of 0.9 ng/mL.
On to `CCOC(=O)CC(SP(=S)(OC)OC)C(=O)OCC` (stereo not drawn) [Malathion], for which the IC50 is 0.0301 µg/mL (≈ 0.0911 µM) in assay [5], > 100 µg/mL in assay [3] and 10.47 µg/mL (≈ 31.7 µM) in assay [4].
For `COP(=S)(OC)Oc1ccc([N+](=O)[O-])cc1` [Parathion-methyl], the “CR (%)” value in the assay with mAb3C9 [1], with mAb3C9 [2] and in the assay on mAb4D11 was 100.0% throughout. Further, the “LOD (IC10)” value in the assay on mAb3C9 [1] and with mAb3C9 [2] was 0.0009 µg/mL in each case. Also, the “IC50 ± SD” value with mAb3C9 [1] came out at 0.0051 ± 0.0002 µg/mL (≈ 0.0194 µM); in the assay with mAb3C9 [2], 0.0047 ± 0.0003 µg/mL (≈ 0.0179 µM). For the same molecule, the IC50 in assay [5] was 0.4389 µg/mL (≈ 1.67 µM); in assay [3], 0.0037 µg/mL (≈ 0.0141 µM); in the assay on mAb4D11, 0.0145 µg/mL (≈ 0.0551 µM); in assay [4], 0.58 µg/mL (≈ 2.2 µM). For the same molecule, in the assay with mAb4D11, the LOD amounted to 2.0 ng/mL.
In the case of `CCOP(=S)(OCC)Oc1ccc([N+](=O)[O-])cc1` [Parathion], in the assay on mAb3C9 [1], the “CR (%)” value worked out at 0.2%, the “LOD (IC10)” value amounted to 0.4392 µg/mL and the “IC50 ± SD” value was 2.3284 ± 0.0514 µg/mL (≈ 7.99 µM). In addition, in the assay on mAb3C9 [2], the “CR (%)” value worked out at 0.2%, the “LOD (IC10)” value was found to be 0.4663 µg/mL and the “IC50 ± SD” value worked out at 2.4125 ± 0.061 µg/mL (≈ 8.28 µM). The IC50 in assay [5] is > 1 µg/mL. For the same molecule, the IC50 in assay [3] was 0.0113 µg/mL (≈ 0.0388 µM). In the assay on mAb4D11, the “CR (%)” value is 8.9%, the IC50 was 0.1636 µg/mL (≈ 0.562 µM) and the LOD is given as 17.5 ng/mL.
As to `COP(=S)(OC)Oc1c(Cl)cc(C)cc1Cl` [Tolclofos-methyl], in the assay with mAb3C9 [1], the “CR (%)” value was determined as 61.3%, the “LOD (IC10)” value amounted to 0.0017 µg/mL and the “IC50 ± SD” value is 0.0083 ± 0.0004 µg/mL (≈ 0.0276 µM). Besides, in the assay with mAb3C9 [2], the “CR (%)” value was found to be 70.2%, the “LOD (IC10)” value was found to be 0.0012 µg/mL and the “IC50 ± SD” value worked out at 0.0066 ± 0.0003 µg/mL (≈ 0.0219 µM). The IC50 in assay [3] is > 100 µg/mL. In addition, in the assay with mAb4D11, the “CR (%)” value is 46.2%, the IC50 turned out to be 0.0314 µg/mL (≈ 0.104 µM) and the LOD amounted to 9.5 ng/mL. Also, the IC50 in assay [4] is 1.1 µg/mL (≈ 3.65 µM).
